ChEMBL document CHEMBL4184292, “Synthetic strigolactone analogues reveal anti-cancer activities on hepatocellular carcinoma cells” (Bioorg Med Chem Lett, 2018)
The source made the active and inactive calls. No cut-off for these calls is given here.

What was measured:
[1] = system: HepG2; assay: Cytotoxicity against human HepG2 cells assessed as reduction in cell viability at 80 uM after 24 hrs by WST1 assay relative to control; type: functional
[2] = system: HepG2; assay: Cytotoxicity against human HepG2 cells assessed as reduction in cell viability after 24 hrs by WST1 assay; type: functional, cell-based; settings: for IC50: HepG2, 24 h
[3] = system: HepG2; assay: Cytotoxicity against human HepG2 cells assessed as reduction in cell viability at 40 uM after 24 hrs by WST1 assay; type: functional, cell-based
[4] = system: HepG2; assay: Induction of apoptosis in human HepG2 cells assessed as early apoptotic cells at 80 uM after 24 hrs by Annexin-V/7AAD staining based flow cytometry (reference value: 5.1 to 12.5 %); type: functional
[5] = system: HepG2; assay: Induction of apoptosis in human HepG2 cells assessed as late apoptotic cells at 80 uM after 24 hrs by Annexin-V/7AAD staining based flow cytometry (reference value: 0.2 to 0.4%); type: functional
[6] = system: HepG2; assay: Growth inhibition of human HepG2 cells at 100 uM after 24 hrs; type: functional, cell-based
[7] = system: HepG2; assay: Antimigratory activity in human HepG2 cells at 100 uM after 24 hrs by wound-scratch assay; type: functional, cell-based
[8] = system: HepG2; assay: Induction of apoptosis in human HepG2 cells assessed as early apoptotic cells at 80 uM after 2 hrs by Annexin-V/7AAD staining based flow cytometry (reference value: 3.8 to 4.2 %); type: functional
[9] = system: HepG2; assay: Induction of apoptosis in human HepG2 cells assessed as late apoptotic cells at 20 uM after 24 hrs by Annexin-V/7AAD staining based flow cytometry (reference value: 0.2 to 0.4%); type: functional
[10] = Cytotoxicity against BHK cells assessed as reduction in cell viability at 80 uM after 48 hrs by WST1 assay relative to control; type: cell-based, Mesocricetus auratus; settings: hamster
[11] = system: HepG2; assay: Cytotoxicity against human HepG2 cells assessed as reduction in cell viability at 80 uM after 4 hrs by WST1 assay relative to control; type: functional
[12] = system: HepG2; assay: Cytotoxicity against human HepG2 cells assessed as reduction in cell viability at 80 uM by WST1 assay; type: functional, cell-based; settings: TDE = time-dependent effect
[13] = system: Jurkat; assay: Cytotoxicity against human Jurkat cells assessed as reduction in cell viability after 24 hrs by WST1 assay; type: functional, cell-based
[14] = system: HepG2; assay: Cytotoxicity against human HepG2 cells assessed as reduction in cell viability at 80 uM after 12 hrs by WST1 assay relative to control; type: functional
[15] = system: HepG2; assay: Induction of apoptosis in human HepG2 cells assessed as late apoptotic cells at 60 uM after 24 hrs by Annexin-V/7AAD staining based flow cytometry (reference value: 0.2 to 0.4%); type: functional
[16] = system: HepG2; assay: Antimigratory activity in human HepG2 cells at 80 uM after 24 hrs by wound-scratch assay; type: functional, cell-based
[17] = system: HepG2; assay: Induction of apoptosis in human HepG2 cells assessed as early apoptotic cells at 20 uM after 24 hrs by Annexin-V/7AAD staining based flow cytometry (reference value: 5.1 to 12.5 %); type: functional
[18] = system: PC-3; assay: Cytotoxicity against human PC3 cells assessed as reduction in cell viability after 24 hrs by WST1 assay; type: functional, cell-based; settings: for IC50: PC-3, 24 h
[19] = system: HepG2; assay: Induction of apoptosis in human HepG2 cells assessed as late apoptotic cells at 40 uM after 24 hrs by Annexin-V/7AAD staining based flow cytometry (reference value: 0.2 to 0.4%); type: functional
[20] = system: HepG2; assay: Cytotoxicity against human HepG2 cells assessed as reduction in cell viability at 80 uM after 8 hrs by WST1 assay relative to control; type: functional
[21] = system: HepG2; assay: Induction of apoptosis in human HepG2 cells assessed as early apoptotic cells at 40 uM after 24 hrs by Annexin-V/7AAD staining based flow cytometry (reference value: 5.1 to 12.5 %); type: functional
[22] = system: HepG2; assay: Induction of apoptosis in human HepG2 cells assessed as early apoptotic cells at 60 uM after 24 hrs by Annexin-V/7AAD staining based flow cytometry (reference value: 5.1 to 12.5 %); type: functional
[23] = system: HepG2; assay: Induction of apoptosis in human HepG2 cells assessed as early apoptotic cells at 80 uM after 6 hrs by Annexin-V/7AAD staining based flow cytometry (reference value: 3.8 to 4.2 %); type: functional
[24] = system: HepG2; assay: Induction of apoptosis in human HepG2 cells assessed as late apoptotic cells at 80 uM after 6 hrs by Annexin-V/7AAD staining based flow cytometry (reference value: 0.2 to 0.7 %); type: functional
[25] = system: HepG2; assay: Induction of apoptosis in human HepG2 cells assessed as late apoptotic cells at 80 uM after 2 hrs by Annexin-V/7AAD staining based flow cytometry (reference value: 0.2 to 0.7 %); type: functional

Work on `CC1=CC(Oc2c(Br)cccc2C#N)OC1=O` (stereo not drawn) yielded an Activity [1] of 43.8% and an IC50 [2] of 87.6 µM.
With `CC1=CC(Oc2ccc(Cl)c(Cl)c2)OC1=O` (stereo not drawn) the Activity [1] was 43.5%, the IC50 [2] was 85.9 µM and the Activity [3] was “Active”.
Compound `CC1=CC(Oc2ccc(F)cc2Br)OC1=O` (stereo not drawn) has an Activity [1] of 39% and an IC50 [2] of 90.3 µM.
In the case of `CC1=CC(=O)C(C(C)C)=CC1=O` [THYMOQUINONE], the Activity [4] is reported as 91.8%, the Activity [5] is reported as 3.3% and the “growth inhibition (GI)” value [6] is reported as “Active”. For the same compound, the Activity [7] was “Active”.
With `COC(=O)/C(=C/OC1C=C(C)C(=O)O1)c1ccccc1` (stereo not drawn) the Activity [8] was 3.8%, the Activity [9] was 0.2% and the Activity [10] was 18%. The Activity [1] was 63.4 - 73%, the Activity [2] was “Dose-dependent effect” and the IC50 [2] was 63.5 µM. For the same compound, the Activity [11] was 13%, the Activity [4] was 26.6% and the Activity [12] was “Tde”. The Activity [13] was “Dose-dependent effect”, the IC50 [13] was 46.4 µM and the Activity [14] was 31%. For the same compound, the Activity [15] was 0.4%, the Activity [16] was “Active” and the Activity [17] was 9.5%. For the same compound, the Activity [18] was “Dose-dependent effect”, the IC50 [18] was 55.1 µM and the Activity [19] was 0.2%. It also gave an Activity [5] of 0.2%, an Activity [20] of 20% and an Activity [21] of 13.1%. For the same compound, the Activity [22] was 18.5%, the Activity [23] was 13.3% and the Activity [24] was 1.2%. It also gave an Activity [25] of 1.7%.
`COC(=O)/C(=C/OC1C=C(C)C(=O)O1)c1ccc(Cl)cc1` (stereo not drawn) gave an Activity [8] of 4.3%, an Activity [9] of 0.2% and an Activity [10] of 23%. The Activity [1] was 61 - 61.4%, the Activity [2] was “Dose-dependent effect” and the IC50 [2] was 67.8 µM. The Activity [11] was 11%, the Activity [3] was “Active” and the Activity [4] was 20.9%. For the same compound, the Activity [12] was “Tde”, the Activity [13] was “Dose-dependent effect” and the IC50 [13] was 44.7 µM. For the same compound, the Activity [14] was 26%, the Activity [15] was 0.5% and the Activity [16] was “Active”. The Activity [17] was 9.5%, the Activity [18] was “Dose-dependent effect” and the IC50 [18] was 56.6 µM. The Activity [19] was 0.4%, the Activity [5] was 0.5% and the Activity [20] was 19%. For the same compound, the Activity [21] was 11.3%, the Activity [22] was 16.1% and the Activity [23] was 13.7%. For the same compound, the Activity [24] was 1.5% and the Activity [25] was 0.9%.
In the case of `CC1=CC(Oc2cc(Cl)cc(Cl)c2)OC1=O` (stereo not drawn), the Activity [1] is reported as 40.7% and the IC50 [2] is reported as 89.5 µM.
In the case of `COC(=O)/C(=C/OC1C=C(C)C(=O)O1)c1ccc(OC)cc1` (stereo not drawn), the Activity [10] is reported as 33%, the Activity [1] is reported as 50.1% and the IC50 [2] is reported as 82.1 µM. The Activity [3] was “Active”.
